Data taken from patent publication US20230067064A1, “METHODS AND COMPOSITIONS FOR MODULATING SPLICING” (SkyHawk Therapeutics, Inc., priority 2019, published 2023).
Like-named read-outs stand apart in the source and are kept apart here.

Experiments:
mHTT protein = mHTT protein assay, 2B7-MW1 Mesoscale Discovery (MSD); assay type: cell-based, human; settings: GM04724 lymphoblast cells, 48 hours, 2B7-MW1 MSD; average; read-out: HTT Potency - Protein & Cytotoxicity: EC50 mHTT (average)
Protocol: Compounds are tested on GM04724 (CAG 70/20) Huntington's disease patient lymphoblast cells at doses ranging from 10 μM to 0.6 nM. 4,500 cells/well are seeded in 384 well plates. One plate replica is carried out for parallel viability testing by CellTiter Glo (CTG). Compounds are incubated for 48 hours. mHTT protein levels are assessed by the 2B7-MW1 assay via Mesoscale Discovery (MSD) as previously reported (Macdonald et al., 2014). The antibody pair is comprised of previously characterized monoclonals (2B7 and MW1) interrogating two regions for HTT conformation and biological properties: the N17 domain and the polyQ domain (Baldo et al., 2012; Ko et., 2001). 2B7-MW1 is dependent on subject/animal specific levels of HTT at the time of treatment. 2B7-MW1 is dependent on polyQ expansion (e.g., the higher the expansion the higher the signal) and on mHTT size (e.g., a similar polyQ will give higher signal with smaller HTT size). The viability readout is carried out by CTG according to the manufacturer's instructions. The results are show in Table A-10.

[1] = test system: cryptic exon within intron 49 of the Huntingtin (HTT) transcripts, GM04724 (CAG 70/20) Huntington's disease patient lymphoblasts; assay: Quantitative splicing assay (HTT); assay type: cell-based, human; settings: average
Protocol: GM04724 (CAG 70/20) Huntington's disease patient lymphoblasts (Coriell) are plated in 96-well v-bottom plates at 50,000 cells/well. Immediately after plating, cells are dosed with compound for 24 h at concentrations ranging from 2.5 uM to 0.15 nM (0.1% DMSO). Treated cells are lysed and cDNA synthesized using the Fast Advanced Cells-to-Ct kit (Thermofisher A35378) according to the manufacturer's instructions. 2 uL of each cDNA are used in qPCR reactions to confirm the compound-induced inclusion of a cryptic exon within intron 49 of the Huntingtin (HTT) transcripts. The qPCR reactions are prepared in 384-well plates in 10 uL volume, using TaqMan™ Fast Advanced Master Mix [ThermoFisher; 4444965] with primers and probes shown in the table below. Reactions are run in a Quant Studio 6 qPCR instrument with default settings.

SMN protein = SMN protein assay, Mesoscale Discovery (MSD); assay type: cell-based, human; settings: SMA patient fibroblasts (GM03813), 48 hours, average, read-out: SMN2 Potency - Protein: Protein FL EC50 (average)
Protocol: Compounds are tested on spinal muscular atrophy (SMA) patient fibroblasts (GM03813, Coriell) at doses ranging from 2.5 μM to 0.6 nM. 7000 cells/well are seeded in 96-well plates. Compounds are incubated for 48 hours and the cells were lysed with 100 μL of lysis buffer. 20 μL of lysate is used for SMN protein measurement by Mesoscale Discovery (MSD) assay developed by PharmOptima (Michigan). A standard curve prepared with SMN protein ranging from 1 μg/ml to 19.5 pg/ml is used in each MSD plate to calculate the absolute SMN protein amount in each sample.

[2] = test system: MDR1-MDCK cell monolayers; assay: MDCK-MDR1 permeability assay, blood-brain-barrier (BBB) penetration potential; assay type: in vitro ADME; settings: for General MDCK-MDR1: % Recov A-B: A-B direction; for General MDCK-MDR1: % Recov B-A: B-A direction; for General MDCK-MDR1: Efflux: efflux ratio
Protocol: Each determination is performed in duplicate. […] Analytical conditions are outlined below.
Papp=(dCr/dt)×Vr/(A×CA) (1)

[3] = test system: SMN FL and SMN Δ7 mRNA, spinal muscular atrophy (SMA) patient fibroblasts (GM03813); assay: Quantitative splicing assay (SMN); assay type: cell-based, human; settings: 24 h, average; for IC50: read-out: SMN2 Potency - Splicing: Splicing D7 IC50 (average); for EC50: read-out: SMN2 Potency - Splicing: Splicing FL EC50 (average)
Protocol: Spinal muscular atrophy (SMA) patient fibroblasts (GM03813, Coriell) are plated in 96-well plates at 50,000 cells/well. […] Treated cells are lysed and cDNA synthesized using the Fast Advanced Cells-to-Ct kit (Thermofisher A35378) according to the manufacturer's instructions. 2 μL of each cDNA are used in qPCR reactions. […] Reactions are run in a Quant Studio 6 qPCR instrument with default settings.

[4] = read-out: HTT Potency - Splicing: E49-50 EC50 (average)
[5] = read-out: HTT Potency - Splicing: E49b EC50 (average)

SMILES | EC50 (mHTT protein) | EC50 [1, 4] | EC50 [1, 5] | EC50 (SMN protein) | General MDCK-MDR1: % Recov A-B [2] | General MDCK-MDR1: % Recov B-A [2] | General MDCK-MDR1: Efflux [2] | IC50 [3] | EC50 [3]
COCC12CCC(CC(N(C)c3ccc(-c4cc(F)c(-n5ccnc5)cc4O)nn3)C1)N2 (single isomer, unassigned; ent1) [315-Ent1] | 0.01 to 15 nM | 0.01 to 15 nM | 0.01 to 15 nM | 0.01 to 15 nM | 109% | 108% | 103 | 0.01 to 15 nM | 0.01 to 15 nM
CC12CCC(CC(Oc3ccc(-c4ccc(-n5ccnc5)cc4O)nn3)C1)N2 (single isomer, unassigned; ent2) [303-Ent2] | 0.01 to 15 nM | 0.01 to 15 nM | 0.01 to 15 nM | 0.01 to 15 nM | 86% | 88% | 62 | 16 to 50 nM | 16 to 50 nM
CN(c1ccc(-c2ccc(-c3cnn(C)c3)cc2O)nn1)C1CC2CCC(C)(N2)C1F (single isomer, unassigned; ent1) [317-Ent1] | 0.01 to 15 nM | 0.01 to 15 nM | 0.01 to 15 nM | 0.01 to 15 nM | 73% | 98% | 17 | 0.01 to 15 nM | 0.01 to 15 nM
C[C@]12CC[C@H](C[C@@H](Oc3ccc(-c4ccc(-n5ccnc5)cc4O)nn3)C1)N2 (single isomer, unassigned; ent1) [303-Ent1] | 0.01 to 15 nM | 16 to 50 nM | 16 to 50 nM | 0.01 to 15 nM | 90% | 90% | 40 | 16 to 50 nM | 101 to 500 nM
CN(c1ccc(-c2ccc(-c3cnn(C)c3)cc2O)nn1)C1CC2(C)CCC(N2)C1F (single isomer, unassigned; ent2) [318-Ent2] | 0.01 to 15 nM | – | – | 0.01 to 15 nM | – | – | – | – | –
COc1cc(-c2ccc(-c3ccc(N(C)[C@@H]4C[C@H]5CCC[C@@](C)(C4)N5)nn3)c(O)c2)cnn1 (single isomer, unassigned; ent1) [311-Ent1] | 0.01 to 15 nM | – | – | 16 to 50 nM | 93% | 96% | 180 | – | –
COc1cc(-c2ccc(-c3ccc(N(C)C4CC5CCC(C)(C4)N5)nn3)c(O)c2)cnn1 (single isomer, unassigned; ent2) [310-Ent2] | 0.01 to 15 nM | – | – | 16 to 50 nM | 89% | 80% | 133 | – | –
CN1[C@@H]2CCC[C@H]1C[C@H](Oc1ccc(-c3ccc(-c4cn[nH]c4)cc3O)nn1)C2 [compound 305] | 51 to 100 nM | – | – | 501 to 10000 nM | – | – | – | – | –
COc1cc(-c2ccc(-c3ccc(N(C)C4CC5CCCC(C)(C4)N5)nn3)c(O)c2)cnn1 (single isomer, unassigned; ent2) [311-Ent2] | 0.01 to 15 nM | – | – | 16 to 50 nM | 84% | 83% | 137 | – | –
COCC12CCC(CC(N(C)c3ccc(-c4cc(F)c(-n5ccnc5)cc4O)nn3)C1)N2 (single isomer, unassigned; ent2) [315-Ent2] | 0.01 to 15 nM | 0.01 to 15 nM | 0.01 to 15 nM | – | 104% | 107% | 117 | – | –
C[C@]12CC[C@H](C[C@@H](Oc3ccc(-c4ccc(-c5cn[nH]c5)cc4O)nn3)C1)N2 (single isomer, unassigned; ent1) [309-Ent1] | 0.01 to 15 nM | 0.01 to 15 nM | 0.01 to 15 nM | 0.01 to 15 nM | 93% | 93% | 68 | 0.01 to 15 nM | –
COCC12CCCC(CC(Oc3ccc(-c4ccc(-c5cnn(C)c5)cc4O)nn3)C1)N2 (single isomer, unassigned; ent1) [316-Ent1] | 0.01 to 15 nM | 16 to 50 nM | 16 to 50 nM | 0.01 to 15 nM | 84% | 96% | 43 | 16 to 50 nM | 51 to 100 nM
COc1cc(-c2ccc(-c3ccc(N(C)[C@@H]4C[C@H]5CC[C@@](C)(C4)N5)nn3)c(O)c2)cnn1 (single isomer, unassigned; ent1) [310-Ent1] | 0.01 to 15 nM | – | – | 501 to 10000 nM | 94% | 89% | 130 | – | –
CN(c1ccc(-c2ccc(-n3ccnc3)cc2O)nn1)[C@@H]1C[C@H]2CC[C@@](C)(C1)N2 (single isomer, unassigned; ent1) [304-Ent1] | 0.01 to 15 nM | 0.01 to 15 nM | 0.01 to 15 nM | 0.01 to 15 nM | 94% | 90% | 137 | – | –
CN(c1ccc(-c2ccc(-n3ccnc3)cc2O)nn1)C1CC2CCC(C)(C1)N2 (single isomer, unassigned; ent2) [304-Ent2] | 0.01 to 15 nM | 0.01 to 15 nM | 0.01 to 15 nM | 0.01 to 15 nM | 87% | 83% | 109 | – | –
CC12CCC(CC(Oc3ccc(-c4ccc(-c5cn[nH]c5)cc4O)nn3)C1)N2 (single isomer, unassigned; ent2) [309-Ent2] | 0.01 to 15 nM | 0.01 to 15 nM | 0.01 to 15 nM | – | 91% | 86% | 50 | – | –
